# Experimental data published in patent publication US20030212116A1 (priority 1999, published 2003).
structure (smiles),measurement,value
COC(=O)Cc1ccccc1N=C1N(C)CC(=O)N1C,melting point,57 to 59 °C
